According to patent KR20180046249A, “리소스퍼믹 액시드를 포함하는 구강질환 예방 또는 치료용 조성물” (주식회사 엘지생활건강, priority 2016, dated 2018):

Key:
Type in all cases: cell-based
Porphyromonas gingivalis = assay: Paper disc antibacterial test, Porphyromonas gingivalis; conditions: anaerobic, 24-48 h incubation, untreated: no inhibition
PGE2 = PGE2 inhibition in LPS-stimulated macrophages (ELISA); conditions: LPS 1 ㎍/ml
Streptococcus mutans = assay: Paper disc antibacterial test, Streptococcus mutans; conditions: 24-48 h incubation, untreated: no inhibition

O=C(/C=C/c1ccc(O)c2c1[C@H](C(=O)O)[C@@H](c1ccc(O)c(O)c1)O2)O[C@H](Cc1ccc(O)c(O)c1)C(=O)O [리소스퍼믹 액시드, lithospermic acid] was tested, and the “growth inhibition zone diameter” value (Porphyromonas gingivalis; 10 mg/disc, 8 mm disc, 37, TSA Hemin Menadione medium) was about 10.0 mm, the zone of inhibition at 10 mg/disc (Porphyromonas gingivalis; Porphyromonas gingivalis, 8 mm disc, 37, TSA Hemin Menadione medium, read-out: growth inhibition zone diameter) was 9.8 mm and the “PGE2 inhibition, concentration dependence (in words)” value (PGE2) was “농도 의존적으로 PGE2를 억제하는 효과”. For the same compound, the inhibition at 2 ppm (PGE2; Macrophage, 2ppm, 24 h, compared with LPS-only group) was about 50%, the inhibition at 20 ppm (PGE2; Macrophage, 20ppm, 24 h, compared with LPS-only group) was about 70% and the “growth inhibition zone diameter” value (Streptococcus mutans; 10 mg/disc, 8 mm disc, 37, BHI) was about 10.0 mm. It also gave a zone of inhibition at 10 mg/disc (Streptococcus mutans; Streptococcus mutans, 8 mm disc, 37, BHI, read-out: growth inhibition zone diameter) of 10.7 mm.
